Activity calls are given as the source filed them. The rule behind the calls is not given here.
Assays:
[1] = Inhibition of PKC at 3 uM
Angiopoietin-1 receptor = Angiopoietin-1 receptor (Homo sapiens, UniProt Q02763); assay: Inhibition of human recombinant TIE-2 by time resolved fluorescence measurements
[2] = molecular target: T1, Vascular endothelial growth factor receptor 2 (Homo sapiens, UniProt P35968); assay: Inhibition of human recombinant VEGFR2 by time resolved fluorescence measurements
[3] = molecular target: T1, Vascular endothelial growth factor receptor 2; assay: Inhibition of VEGF-stimulated VEGFR2 autophosphorylation in HUVEC
[4] = Terminal half life in rat at 1 mg/kg, iv; format: ADME, organism-based; set-up: dose 1 mg/kg, route intravenous; details: in vivo, read-out: beta t1/2 (converted)
[5] = Clearance in rat at 1 mg/kg, iv; format: ADME, organism-based; set-up: dose 1 mg/kg, route intravenous; details: in vivo
[6] = AUC (0 to infinity) in rat at 1 mg/kg, iv; format: ADME, organism-based; set-up: time infinity, dose 1 mg/kg, route intravenous; details: plasma
[7] = Volume of distribution in rat at 1 mg/kg, iv; format: ADME, organism-based; set-up: dose 1 mg/kg, route intravenous; details: in vivo
[8] = Oral bioavailability in rat at 10 mg/kg; format: ADME, organism-based; details: in vivo
[9] = Terminal half life in rat at 10 mg/kg, po; format: ADME, organism-based; set-up: dose 10 mg/kg, route oral; details: in vivo, read-out: beta t1/2 (converted)
[10] = AUC (0 to infinity) in rat at 10 mg/kg, po; format: ADME, organism-based; set-up: time infinity, dose 10 mg/kg, route oral; details: plasma
[11] = Cmax in rat at 10 mg/kg, po; format: ADME, organism-based; set-up: dose 10 mg/kg, route oral; details: in vivo
[12] = Metabolic stability in rat liver S9 fraction; format: ADME, subcellular
[13] = Inhibition of cytochrome P450
[14] = molecular target: Tyrosine-protein kinase Lyn (Homo sapiens) (UniProt P07948); assay: Inhibition of Lyn at 3 uM
[15] = molecular target: Platelet-derived growth factor receptor beta (Homo sapiens) (UniProt P09619); assay: Inhibition of PDGFRbeta at 3 uM
[16] = molecular target: Fibroblast growth factor receptor 3 (Homo sapiens) (UniProt P22607); assay: Inhibition of FGFR3 at 3 uM
[17] = molecular target: Tyrosine-protein kinase Lck (Homo sapiens) (UniProt P06239); assay: Inhibition of LCK at 3 uM
[18] = molecular target: Tyrosine-protein kinase Fyn (Homo sapiens) (UniProt P06241); assay: Inhibition of Fyn at 3 uM
[19] = molecular target: Tyrosine-protein kinase Yes (Homo sapiens) (UniProt P07947); assay: Inhibition of YES at 3 uM
[20] = molecular target: Tyrosine-protein kinase Blk (Homo sapiens) (UniProt P51451); assay: Inhibition of Blk at 3 uM
[21] = molecular target: Epidermal growth factor receptor (Homo sapiens, UniProt P00533); assay: Inhibition of EGFR
Insulin receptor = Insulin receptor (Homo sapiens, UniProt P06213); assay: Inhibition of insulin receptor
[22] = Inhibition of CDK at 3 uM
[23] = molecular target: T2, Serine/threonine-protein kinase Chk1 (Homo sapiens) (UniProt O14757); assay: Inhibition of CHK1 at 3 uM
T2 sequence (whole entry): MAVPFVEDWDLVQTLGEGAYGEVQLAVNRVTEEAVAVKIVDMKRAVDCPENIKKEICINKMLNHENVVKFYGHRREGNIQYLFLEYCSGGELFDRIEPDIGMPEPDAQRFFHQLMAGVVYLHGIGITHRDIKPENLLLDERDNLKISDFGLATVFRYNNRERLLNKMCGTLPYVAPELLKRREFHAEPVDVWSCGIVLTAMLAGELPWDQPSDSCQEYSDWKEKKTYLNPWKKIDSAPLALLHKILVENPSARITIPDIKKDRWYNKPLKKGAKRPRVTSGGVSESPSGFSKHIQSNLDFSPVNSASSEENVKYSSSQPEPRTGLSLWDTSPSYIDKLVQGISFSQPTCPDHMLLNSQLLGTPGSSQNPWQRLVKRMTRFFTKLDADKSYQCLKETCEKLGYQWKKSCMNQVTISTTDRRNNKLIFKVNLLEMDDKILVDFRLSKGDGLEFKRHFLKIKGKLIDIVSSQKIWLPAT

[24] = molecular target: Glycogen synthase kinase-3 beta (Homo sapiens) (UniProt P49841); assay: Inhibition of GSK3-beta at 3 uM
[25] = Inhibition of JNK at 3 uM
[26] = Inhibition of MAPK at 3 uM
[27] = molecular target: Dual specificity mitogen-activated protein kinase kinase 1 (Homo sapiens) (UniProt Q02750); assay: Inhibition of MEK1 at 3 uM
[28] = molecular target: Vascular endothelial growth factor receptor 1 (Homo sapiens, UniProt P17948); assay: Inhibition of VEGFR1 at 3 uM
[29] = molecular target: Vascular endothelial growth factor receptor 3 (Homo sapiens, UniProt P35916); assay: Inhibition of VEGFR3 at 3 uM
Aorta = assay: Ex vivo antiangiogenic activity in rat aortic ring assessed as inhibition of VEGF-stimulated microvessel growth; format: functional, tissue-based
HUVEC [30] = assay: Inhibition of capillary tube formation in HUVEC; format: functional, cell-based; details: Homo sapiens
HUVEC [31] = assay: Cytotoxicity against HUVEC; format: cell-based; details: human
SVR [32] = assay: Antitumor activity against mouse SVR cells xenografted in nude mouse assessed as tumor inhibition at 1 mg/kg, po bid administered after 4 days tumor implantation for 10 days; format: functional
SVR [33] = assay: Antitumor activity against mouse SVR cells xenografted in nude mouse assessed as tumor inhibition at 3 mg/kg, po bid administered after 4 days tumor implantation for 10 days; format: functional
SVR [34] = assay: Antitumor activity against mouse SVR cells xenografted in nude mouse assessed as tumor regressions at 3 mg/kg, po bid administered after 4 days tumor implantation for 10 days; format: functional
[35] = Plasma concentration in mouse SVR cells xenografted in nude mouse at 3 mg/kg, po bid administered after 4 days tumor implantation for 10 days measured after 2 hrs post dose; format: ADME, organism-based; set-up: dose 3 mg/kg, route oral
[36] = Plasma concentration in mouse SVR cells xenografted in nude mouse at 1 mg/kg, po bid administered after 4 days tumor implantation for 10 days measured after 2 hrs post dose; format: ADME, organism-based; set-up: dose 1 mg/kg, route oral
SVR [37] = assay: Antitumor activity against mouse SVR cells xenografted in nude mouse assessed as partial tumor regressions at 1 mg/kg, po bid administered after 4 days tumor implantation for 10 days; format: functional
SVR [38] = assay: Antitumor activity against mouse SVR cells xenografted in nude mouse assessed as complete tumor regressions at 1 mg/kg, po bid administered after 4 days tumor implantation for 10 days; format: functional

T1 sequence (P35968 whole entry): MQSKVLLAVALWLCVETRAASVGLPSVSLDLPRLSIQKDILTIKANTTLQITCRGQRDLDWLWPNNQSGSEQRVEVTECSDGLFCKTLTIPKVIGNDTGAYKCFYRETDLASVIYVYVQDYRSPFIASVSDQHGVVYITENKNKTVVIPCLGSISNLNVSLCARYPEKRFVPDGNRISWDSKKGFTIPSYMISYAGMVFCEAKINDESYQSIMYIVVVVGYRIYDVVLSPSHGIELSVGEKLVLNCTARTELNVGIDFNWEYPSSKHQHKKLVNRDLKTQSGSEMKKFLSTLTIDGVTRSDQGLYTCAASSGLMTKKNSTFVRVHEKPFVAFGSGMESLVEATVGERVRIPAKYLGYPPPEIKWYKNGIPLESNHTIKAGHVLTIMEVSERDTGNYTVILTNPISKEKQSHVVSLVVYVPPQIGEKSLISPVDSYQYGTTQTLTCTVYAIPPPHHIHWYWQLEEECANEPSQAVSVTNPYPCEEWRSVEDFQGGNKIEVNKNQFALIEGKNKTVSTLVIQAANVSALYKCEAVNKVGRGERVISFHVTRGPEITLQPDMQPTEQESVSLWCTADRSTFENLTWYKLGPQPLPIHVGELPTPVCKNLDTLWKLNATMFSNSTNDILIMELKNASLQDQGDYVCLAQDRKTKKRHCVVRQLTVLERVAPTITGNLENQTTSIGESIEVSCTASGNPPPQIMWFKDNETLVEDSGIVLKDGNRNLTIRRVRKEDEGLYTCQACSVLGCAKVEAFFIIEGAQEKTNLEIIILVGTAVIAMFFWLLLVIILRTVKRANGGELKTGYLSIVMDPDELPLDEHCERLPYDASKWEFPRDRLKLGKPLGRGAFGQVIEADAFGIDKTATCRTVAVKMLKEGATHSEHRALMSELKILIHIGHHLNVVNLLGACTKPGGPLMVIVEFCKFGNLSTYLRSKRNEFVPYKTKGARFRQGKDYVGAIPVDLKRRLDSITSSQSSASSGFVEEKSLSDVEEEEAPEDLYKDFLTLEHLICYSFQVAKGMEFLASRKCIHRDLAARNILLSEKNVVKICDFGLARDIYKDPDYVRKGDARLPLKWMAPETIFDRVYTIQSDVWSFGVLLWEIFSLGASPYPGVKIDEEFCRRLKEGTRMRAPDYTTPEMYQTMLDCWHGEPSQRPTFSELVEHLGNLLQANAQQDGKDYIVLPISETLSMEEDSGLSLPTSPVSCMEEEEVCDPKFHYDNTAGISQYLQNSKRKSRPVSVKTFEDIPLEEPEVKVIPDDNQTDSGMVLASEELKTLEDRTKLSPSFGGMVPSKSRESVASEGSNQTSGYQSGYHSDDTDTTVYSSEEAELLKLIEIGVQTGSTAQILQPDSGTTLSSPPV
Chain of Vascular endothelial growth factor receptor 3 (P35916 whole entry): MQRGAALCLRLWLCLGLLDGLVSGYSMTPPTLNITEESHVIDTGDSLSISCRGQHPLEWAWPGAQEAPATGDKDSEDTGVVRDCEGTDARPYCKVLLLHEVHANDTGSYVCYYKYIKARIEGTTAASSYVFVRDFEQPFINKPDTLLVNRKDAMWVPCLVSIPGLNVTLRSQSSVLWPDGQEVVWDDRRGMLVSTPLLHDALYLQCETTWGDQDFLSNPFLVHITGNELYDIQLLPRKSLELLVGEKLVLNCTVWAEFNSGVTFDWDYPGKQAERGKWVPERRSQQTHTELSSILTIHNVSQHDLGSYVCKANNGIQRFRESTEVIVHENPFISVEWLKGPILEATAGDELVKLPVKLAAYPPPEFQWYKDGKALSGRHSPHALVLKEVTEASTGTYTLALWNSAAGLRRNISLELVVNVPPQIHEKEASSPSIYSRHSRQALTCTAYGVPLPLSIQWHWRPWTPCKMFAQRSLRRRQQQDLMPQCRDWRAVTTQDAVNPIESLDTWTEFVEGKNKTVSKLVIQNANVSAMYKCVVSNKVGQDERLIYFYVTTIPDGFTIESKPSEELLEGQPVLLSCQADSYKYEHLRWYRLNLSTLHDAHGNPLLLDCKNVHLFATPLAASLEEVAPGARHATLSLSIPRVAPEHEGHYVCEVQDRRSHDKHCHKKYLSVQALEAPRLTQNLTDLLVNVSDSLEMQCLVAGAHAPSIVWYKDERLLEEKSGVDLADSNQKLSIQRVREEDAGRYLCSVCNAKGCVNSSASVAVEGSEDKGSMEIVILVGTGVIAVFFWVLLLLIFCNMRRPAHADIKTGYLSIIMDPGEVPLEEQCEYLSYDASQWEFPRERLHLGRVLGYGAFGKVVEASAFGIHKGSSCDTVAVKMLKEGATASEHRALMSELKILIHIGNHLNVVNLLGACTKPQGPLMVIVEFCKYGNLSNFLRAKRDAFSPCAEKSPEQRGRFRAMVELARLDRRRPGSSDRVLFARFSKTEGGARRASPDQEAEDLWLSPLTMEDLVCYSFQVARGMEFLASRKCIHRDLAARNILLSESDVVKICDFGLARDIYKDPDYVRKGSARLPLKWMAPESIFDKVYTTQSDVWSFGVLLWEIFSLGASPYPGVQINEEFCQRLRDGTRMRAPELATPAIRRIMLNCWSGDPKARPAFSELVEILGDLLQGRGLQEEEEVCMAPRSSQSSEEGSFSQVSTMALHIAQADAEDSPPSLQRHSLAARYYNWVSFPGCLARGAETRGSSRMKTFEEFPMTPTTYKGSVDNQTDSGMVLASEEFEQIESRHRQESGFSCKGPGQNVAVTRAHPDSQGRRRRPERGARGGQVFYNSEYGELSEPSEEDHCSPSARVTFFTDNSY
Chain of Vascular endothelial growth factor receptor 1 (P17948 whole entry): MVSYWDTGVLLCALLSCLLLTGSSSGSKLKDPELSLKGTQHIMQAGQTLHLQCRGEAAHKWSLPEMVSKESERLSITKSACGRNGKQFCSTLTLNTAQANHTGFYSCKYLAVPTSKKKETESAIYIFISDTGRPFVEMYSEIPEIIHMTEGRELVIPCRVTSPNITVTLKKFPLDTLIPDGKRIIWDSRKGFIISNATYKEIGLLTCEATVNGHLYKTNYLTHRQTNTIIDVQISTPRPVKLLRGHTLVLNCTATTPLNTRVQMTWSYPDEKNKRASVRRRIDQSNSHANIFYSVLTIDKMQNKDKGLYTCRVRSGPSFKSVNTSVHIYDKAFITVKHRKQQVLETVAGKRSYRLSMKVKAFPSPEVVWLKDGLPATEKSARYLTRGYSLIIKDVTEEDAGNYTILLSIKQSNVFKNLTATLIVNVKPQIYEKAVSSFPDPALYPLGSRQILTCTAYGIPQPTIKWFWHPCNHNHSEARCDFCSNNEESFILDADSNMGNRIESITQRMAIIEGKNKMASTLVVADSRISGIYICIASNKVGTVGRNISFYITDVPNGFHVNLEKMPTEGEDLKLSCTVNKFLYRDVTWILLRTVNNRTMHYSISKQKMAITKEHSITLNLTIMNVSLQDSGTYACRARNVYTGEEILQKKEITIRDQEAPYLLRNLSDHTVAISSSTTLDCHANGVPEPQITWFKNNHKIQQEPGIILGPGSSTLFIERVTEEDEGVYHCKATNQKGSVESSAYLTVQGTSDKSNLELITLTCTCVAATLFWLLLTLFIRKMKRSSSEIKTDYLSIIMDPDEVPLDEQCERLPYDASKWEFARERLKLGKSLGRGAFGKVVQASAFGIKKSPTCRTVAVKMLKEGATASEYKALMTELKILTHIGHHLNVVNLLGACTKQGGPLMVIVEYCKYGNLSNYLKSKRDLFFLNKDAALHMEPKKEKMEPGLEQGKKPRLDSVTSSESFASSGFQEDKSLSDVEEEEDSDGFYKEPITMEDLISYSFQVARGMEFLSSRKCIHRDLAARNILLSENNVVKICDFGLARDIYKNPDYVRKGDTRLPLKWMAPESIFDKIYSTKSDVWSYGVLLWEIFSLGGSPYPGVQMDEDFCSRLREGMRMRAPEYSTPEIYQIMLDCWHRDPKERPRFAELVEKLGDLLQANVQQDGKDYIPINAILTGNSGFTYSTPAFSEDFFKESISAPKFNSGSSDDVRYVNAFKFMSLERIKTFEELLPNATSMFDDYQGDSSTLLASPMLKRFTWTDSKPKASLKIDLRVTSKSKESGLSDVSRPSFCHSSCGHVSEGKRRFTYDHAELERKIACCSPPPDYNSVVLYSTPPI
Chain of Dual specificity mitogen-activated protein kinase kinase 1 (Homo sapiens) (Q02750 whole entry): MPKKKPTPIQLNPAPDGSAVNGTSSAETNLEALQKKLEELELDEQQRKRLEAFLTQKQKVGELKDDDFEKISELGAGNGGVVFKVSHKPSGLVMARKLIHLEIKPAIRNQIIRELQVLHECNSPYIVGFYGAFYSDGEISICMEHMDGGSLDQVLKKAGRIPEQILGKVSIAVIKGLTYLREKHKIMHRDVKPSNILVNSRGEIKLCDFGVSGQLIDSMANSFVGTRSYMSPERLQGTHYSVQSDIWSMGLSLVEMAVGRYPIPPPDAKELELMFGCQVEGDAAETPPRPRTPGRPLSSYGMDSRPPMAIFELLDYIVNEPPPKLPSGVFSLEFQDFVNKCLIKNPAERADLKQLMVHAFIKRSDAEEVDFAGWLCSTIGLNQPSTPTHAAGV
Chain of Tyrosine-protein kinase Lck (Homo sapiens) (P06239 2-509 limits assumed): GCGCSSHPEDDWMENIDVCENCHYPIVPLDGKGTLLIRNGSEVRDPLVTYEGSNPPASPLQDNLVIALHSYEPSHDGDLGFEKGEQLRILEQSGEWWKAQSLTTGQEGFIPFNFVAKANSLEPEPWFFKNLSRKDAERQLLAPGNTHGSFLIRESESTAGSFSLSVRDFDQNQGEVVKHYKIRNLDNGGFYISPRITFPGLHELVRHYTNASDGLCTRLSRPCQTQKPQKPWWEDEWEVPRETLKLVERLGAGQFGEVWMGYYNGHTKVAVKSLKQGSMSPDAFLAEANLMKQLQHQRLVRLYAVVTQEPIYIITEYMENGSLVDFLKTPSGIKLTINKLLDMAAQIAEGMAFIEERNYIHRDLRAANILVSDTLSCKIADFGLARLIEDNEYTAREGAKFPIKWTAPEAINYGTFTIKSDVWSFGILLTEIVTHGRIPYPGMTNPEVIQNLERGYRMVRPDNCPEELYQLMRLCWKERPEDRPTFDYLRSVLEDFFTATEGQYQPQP

For `CCCCn1c2ccc(C3CCCCO3)cc2c2c3c(c4c(c21)CCc1nn(C)cc1-4)C(=O)NC3` (racemic), the inhibition [1] was “inactive”, the IC50 (Angiopoietin-1 receptor) was 0.01 µM and the IC50 [2] was 0.024 µM. It also gave an IC50 [3] of 0.01 µM, a half-life [4] of 1.5 h and a clearance [5] of 15 mL/min/kg. It also gave an AUC(0-inf) [6] of 1160 ng·h/mL, a Vd [7] of 2 L/kg and a bioavailability [8] of 16%. For the same compound, the half-life [9] was 2.8 h, the AUC(0-inf) [10] was 1890 ng·h/mL and the Cmax [11] was 255 ng/mL. For the same compound, the Stability [12] was “Stable”, the INH [13] was over 10 µM and the inhibition [14] was over 90%. It also gave an inhibition [15] of over 90%, an inhibition [16] of 100% and an inhibition [17] of over 90%. For the same compound, the inhibition [18] was over 90%, the inhibition [19] was over 90% and the inhibition [20] was over 90%. For the same compound, the IC50 [21] was over 1 µM, the IC50 (Insulin receptor) was over 1 µM and the inhibition [22] was “inactive”. The inhibition [23] was “inactive”, the inhibition [24] was “inactive” and the inhibition [25] was “inactive”. The inhibition [26] was “inactive”, the inhibition [27] was “inactive” and the IC50 [28] was 0.028 µM. The IC50 [29] was 0.005 µM, the EC50 (Aorta) was 0.0012 µM and the EC50 (HUVEC [30]) was 0.0006 µM. For the same compound, the Activity (HUVEC [31]) was “Non-toxic”, the inhibition in vivo at 1 mg/kg (SVR [32]) was 52% and the inhibition in vivo at 3 mg/kg (SVR [33]) was 63%. For the same compound, the Activity (SVR [34]) was 10%, the concentration at 2 h [35] was 900 nM and the concentration at 2 h [36] was 158 nM.

For `CC(C)Cn1c2ccc(C3CCCCO3)cc2c2c3c(c4c(c21)CCc1nn(C)cc1-4)C(=O)NC3` (racemic), the inhibition [1] was “inactive”, the IC50 (Angiopoietin-1 receptor) was 0.003 µM and the IC50 [2] was 0.011 µM. It also gave an IC50 [3] of 0.01 µM, a half-life [4] of 1.9 h and a clearance [5] of 20 mL/min/kg. For the same compound, the AUC(0-inf) [6] was 862 ng·h/mL, the Vd [7] was 3.2 L/kg and the bioavailability [8] was 15%. For the same compound, the half-life [9] was 3.9 h, the AUC(0-inf) [10] was 1260 ng·h/mL and the Cmax [11] was 154 ng/mL. For the same compound, the Stability [12] was “Stable”, the INH [13] was over 10 µM and the inhibition [14] was over 90%. For the same compound, the inhibition [15] was over 90%, the inhibition [16] was 100% and the inhibition [17] was over 90%. It also gave an inhibition [18] of over 90%, an inhibition [19] of over 90% and an inhibition [20] of over 90%. For the same compound, the IC50 [21] was over 1 µM, the IC50 (Insulin receptor) was over 1 µM and the inhibition [22] was “inactive”. The inhibition [23] was “inactive”, the inhibition [24] was “inactive” and the inhibition [25] was “inactive”. The inhibition [26] was “inactive”, the inhibition [27] was “inactive” and the IC50 [28] was 0.016 µM. For the same compound, the IC50 [29] was 0.009 µM, the EC50 (Aorta) was 0.0009 µM and the EC50 (HUVEC [30]) was 0.002 µM. The Activity (HUVEC [31]) was “Non-toxic”, the inhibition in vivo at 1 mg/kg (SVR [32]) was 59% and the Activity (SVR [37]) was 10%. The Activity (SVR [38]) was 10%, the inhibition in vivo at 3 mg/kg (SVR [33]) was 61% and the Activity (SVR [34]) was 10%. For the same compound, the concentration at 2 h [35] was 950 nM and the concentration at 2 h [36] was 321 nM.
